The values that follow are results of earlier work, collected in patent US20220257541A1, “Lacosamide for the Treatment of ADD/ADHD” (priority 2019, published 2022).

For series [1], the system named is children who take methylphenidate. To be noted: cited from earlier work.
For series [2], the system named is voltage-gated sodium channels. To be noted: cited from earlier work.

With `COC(=O)C(c1ccccc1)C1CCCCN1` (centres unmarked) [methylphenidate], the “proportion of children who develop symptoms of obsessive-compulsive behaviour” value in series [1] is recorded as “one third”.

`NC(=O)c1cn(Cc2c(F)cccc2F)nn1` [rufinamide, 1-[(2,6-difluorophenyl)methyl]-1H-1,2,3-triazole-4 carboxamide]: the mechanism of action result in series [2] is reported as “act through voltage-gated sodium channels”.
